pKd, pKi: −log10 of the molar value.

In general, pKi refers to the Ki on a negative log10 scale, so that one unit is a factor of ten. Low readings indicate a large Ki, high ones a small Ki. As a reminder, the pKd is the Kd on a negative log10 scale, so that one unit is a factor of ten.

Experiment [1] concerns the target T1, 5-HT2C receptor (Oryctolagus cuniculus, UniProt G1TAG7).
T1 sequence (G1TAG7 33-453): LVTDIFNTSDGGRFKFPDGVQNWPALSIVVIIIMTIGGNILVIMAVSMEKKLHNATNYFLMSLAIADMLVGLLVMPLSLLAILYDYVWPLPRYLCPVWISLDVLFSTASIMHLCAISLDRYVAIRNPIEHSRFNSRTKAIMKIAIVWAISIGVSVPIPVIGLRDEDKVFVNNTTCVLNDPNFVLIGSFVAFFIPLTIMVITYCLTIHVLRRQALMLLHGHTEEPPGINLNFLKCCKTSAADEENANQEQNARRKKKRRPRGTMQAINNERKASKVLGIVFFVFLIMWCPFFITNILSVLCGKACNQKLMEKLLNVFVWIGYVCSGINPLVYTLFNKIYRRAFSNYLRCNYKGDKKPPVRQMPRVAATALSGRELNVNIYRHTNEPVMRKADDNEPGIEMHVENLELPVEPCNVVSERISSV
As to the kind of experiment: [3H]mesulergine competition radioligand binding.

Experiment [2] deals with T2, dopamine1 (D1) receptor (Oryctolagus cuniculus, UniProt G1SML2). Briefly: [3H]SCH23390 competition radioligand binding.
T2 sequence (G1SML2 1-448): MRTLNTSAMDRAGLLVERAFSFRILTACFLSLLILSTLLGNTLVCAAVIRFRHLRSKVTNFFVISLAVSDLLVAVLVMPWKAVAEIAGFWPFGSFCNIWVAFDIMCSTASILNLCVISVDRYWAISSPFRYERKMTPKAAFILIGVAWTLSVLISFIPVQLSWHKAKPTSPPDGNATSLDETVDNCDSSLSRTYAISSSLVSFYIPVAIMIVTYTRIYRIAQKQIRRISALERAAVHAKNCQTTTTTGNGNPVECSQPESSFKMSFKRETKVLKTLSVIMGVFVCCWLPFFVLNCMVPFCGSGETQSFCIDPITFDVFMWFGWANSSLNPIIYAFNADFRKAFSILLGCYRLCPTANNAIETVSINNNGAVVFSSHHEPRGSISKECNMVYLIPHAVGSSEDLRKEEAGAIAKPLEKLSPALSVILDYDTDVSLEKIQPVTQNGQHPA
For experiment [3], the target named is T2, dopamine1 (D1) receptor. Briefly: [3H]SCH23390 saturation radioligand binding.
In experiment [4] the target is serotonin2A (5-HT2A) receptor (Oryctolagus cuniculus, UniProt G1SYA7). As to the kind of experiment: [3H]ketanserin saturation radioligand binding.
Sequence of serotonin2A (5-HT2A) receptor (G1SYA7 1-469): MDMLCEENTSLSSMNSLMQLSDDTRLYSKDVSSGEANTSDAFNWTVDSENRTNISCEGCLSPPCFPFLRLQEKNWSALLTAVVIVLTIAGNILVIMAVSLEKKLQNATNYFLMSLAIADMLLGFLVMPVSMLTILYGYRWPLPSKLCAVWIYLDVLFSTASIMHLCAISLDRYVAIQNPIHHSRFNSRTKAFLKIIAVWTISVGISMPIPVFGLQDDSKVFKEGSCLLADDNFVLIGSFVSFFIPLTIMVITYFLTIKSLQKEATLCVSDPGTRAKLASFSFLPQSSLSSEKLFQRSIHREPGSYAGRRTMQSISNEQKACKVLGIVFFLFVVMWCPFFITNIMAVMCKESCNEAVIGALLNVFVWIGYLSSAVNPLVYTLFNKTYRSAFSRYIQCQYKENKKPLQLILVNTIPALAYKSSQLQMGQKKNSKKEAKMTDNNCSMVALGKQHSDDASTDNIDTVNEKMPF
Experiment [5] has as its target T1, 5-HT2C receptor. Briefly: [3H]mesulergine saturation radioligand binding.

Compound `COc1cc(CC(C)N)c(OC)cc1I` (racemic) [DOI, (±)-1-(2,5-dimethoxy-4-iodophenyl)-2-aminopropane] gave a negative logarithm of the Ki (pKi) at 5-HT2C receptor [1] of 7.13.

Take `CCN(CC)C(=O)[C@@H]1C=C2c3cccc4[nH]cc(c34)C[C@H]2N(C)C1` [LSD]: the pKi on 5-HT2C receptor [1] was 8.12; at dopamine1 (D1) receptor [2], 6.79.

Take `CN1CCc2cc(Cl)c(O)cc2[C@@H](c2ccccc2)C1` [SCH23390]: on dopamine1 (D1) receptor [3], the “[3H]SCH23390 saturation radioligand binding (Bmax)” value is “Dopamine1 receptor density was quantified using eight concentrations of the antagonist radioligand, [^3H]SCH23390”.

As to `O=C(c1ccc(F)cc1)C1CCN(CCn2c(=O)[nH]c3ccccc3c2=O)CC1` [ketanserin], the pKd in experiment [4] is 9.68.

As for `CN1C[C@@H](NS(=O)(=O)N(C)C)C[C@@H]2c3cccc4c3c(cn4C)C[C@H]21` [mesulergine], at 5-HT2C receptor [5], the “[3H]mesulergine saturation radioligand binding (Bmax)” value is “Serotonin2C receptor density was quantified using eight concentrations of the antagonist radioligand, [^3H]mesulergine”.
